Measurements published in ChEMBL document CHEMBL4425155, “Synthesis and anti-HBV activity of α-stereoisomer of aristeromycin based analogs” (Bioorg Med Chem Lett, 2016).

Columns and labels:
[1] = Cytotoxicity against human HepG2.2.15.7 cells assessed as reduction in cell viability after 9 days by tetrazolium dye based method
[2] = system: Hepatitis B virus; assay: Antiviral activity against HBV infected in human HepG2.2.15.7 cells assessed as inhibition of viral DNA level after 9 days by real time PCR method; format: functional, organism-based; conditions: HepG2.2.15.7, 216 h

EC50 [2]	Compound	CC50 at 216 h [1]
> 100 µM	Cc1nc(N)c2c(Br)nn([C@@H]3C[C@@H](CO)[C@@H](O)[C@H]3O)c2n1	> 100 µM
6.6 µM	Cc1ncnc2c1c(Br)cn2[C@@H]1C[C@@H](CO)[C@@H](O)[C@H]1O	> 100 µM
0.03 µM	Nc1ccn([C@@H]2CS[C@H](CO)O2)c(=O)n1 [LAMIVUDINE]	> 10 µM
